pIC50: −log10 of the molar value.
Each compound was assayed against human Cat S (Homo sapiens (Human), UniProt P25774) (assay: Cathepsin enzyme inhibition assay (fluorogenic peptide substrate Z-Val-Val-Arg-AMC)). Details: enzyme 1 nM, substrate 20 μM, pH 6.5.
Assay type: biochemical
Procedure: Cathepsin Enzyme Inhibition Assay
Enzyme activity is measured by observing the increase in fluorescence intensity caused by cleavage of a peptide substrate containing a fluorophore whose emission is quenched in the intact peptide.
Assay buffer: 100 mM potassium phosphate pH 6.5, EDTA-Na 5 mM, Triton X-100 0.001%, DTT 5 mM.
Enzymes (all at 1 nM): human and mouse Cathepsin S, Cat K, Cat B, Cat L.
Substrate (20 μM): Z-Val-Val-Arg-AMC, except for Cat K which uses Z-Leu-Arg-AMC (both from Bachem).
AMC=7-Amino-4-Methyl-Coumarin.
Excitation 360 nm, Emission 465 nm.
Enzyme is added to the substance dilutions in 96-well microtitre plates and the reaction is started with substrate. […] IC50 are calculated by standard methods.
Inhibition of human Cat S, mouse Cat S, human Cat K, human Cat B, human Cat L and mouse Cat L have been measured separately.

Chain of human Cat S (P25774 115-331): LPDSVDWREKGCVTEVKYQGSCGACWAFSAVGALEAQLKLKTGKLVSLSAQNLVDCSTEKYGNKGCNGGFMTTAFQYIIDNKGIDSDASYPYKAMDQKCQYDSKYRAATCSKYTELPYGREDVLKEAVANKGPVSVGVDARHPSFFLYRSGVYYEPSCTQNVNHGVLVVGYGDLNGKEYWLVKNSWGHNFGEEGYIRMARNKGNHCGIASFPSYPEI

SMILES	pIC50
CCOc1cc(F)c(F)cc1-c1ccc(S(=O)(=O)[C@@H]2C[C@@H](C(=O)NC3(C#N)CC3)N(C(=O)C3(C(F)(F)F)CC3)C2)c(C)c1 [Example 42, (2S,4R)—N-(1-cyanocyclopropyl)-4-(2′-ethoxy-4′,5′-difluoro-3-methylbiphenyl-4-ylsulfonyl)-1-(1-(trifluoromethyl)cyclopropanecarbonyl)pyrrolidine-2-carboxamide]	8.84
N#CC1(NC(=O)[C@@H]2C[C@@H](S(=O)(=O)c3ccc(-c4ccccc4CO)cc3)CN2C(=O)C2(C(F)(F)F)CC2)CC1 [Example 43, (2S,4R)—N-(1-cyanocyclopropyl)-4-(2′-(hydroxymethyl)biphenyl-4-ylsulfonyl)-1-(1-(trifluoromethyl)cyclopropanecarbonyl)pyrrolidine-2-carboxamide]	8.45
Cc1cc(-c2cnc(N)nc2)ccc1S(=O)(=O)[C@@H]1C[C@@H](C(=O)NC2(C#N)CC2)N(C(=O)C2(C(F)(F)F)CC2)C1 [Example 44, (2S,4R)-4-(4-(2-aminopyrimidin-5-yl)-2-methylphenylsulfonyl)-N-(1-cyanocyclopropyl)-1-(1-(trifluoromethyl)cyclopropanecarbonyl)pyrrolidine-2-carboxamide]	9.29
N#CC1(NC(=O)[C@@H]2C[C@@H](S(=O)(=O)c3ccc(-c4ccc5c(c4)OC(F)(F)O5)cc3C(F)(F)F)CN2C(=O)C2(C(F)(F)F)CC2)CC1 [Example 45, (2S,4R)-4-[4-(2,2-Difluoro-benzo[1,3]dioxol-5-yl)-2-trifluoromethyl-benzenesulfonyl]-1-(1-trifluoromethyl-cyclopropanecarbonyl)-pyrrolidine-2-carboxylic acid (1-cyano-cyclopropyl)-amide]	8.97
Cc1nc(C)c(-c2ccc(S(=O)(=O)[C@@H]3C[C@@H](C(=O)NC4(C#N)CC4)N(C(=O)C4(C(F)(F)F)CC4)C3)c(C(F)(F)F)c2)s1 [Example 48, (2S,4R)-4-[4-(2,4-Dimethyl-thiazol-5-yl)-2-trifluoromethyl-benzenesulfonyl]-1-(1-trifluoromethyl-cyclopropanecarbonyl)-pyrrolidine-2-carboxylic acid (1-cyano-cyclopropyl)-amide]	8.93
Cc1nc(C)c(-c2ccc(S(=O)(=O)[C@@H]3C[C@@H](C(=O)NC4(C#N)CC4)N(C(=O)C4(C(F)(F)F)CC4)C3)cc2)s1 [Example 49, (2S,4R)—N-(1-cyanocyclopropyl)-4-(4-(2,4-dimethylthiazol-5-yl)phenylsulfonyl)-1-(1-(trifluoromethyl)cyclopropanecarbonyl)pyrrolidine-2-carboxamide]	9.04
Cc1ncc(-c2ccc(S(=O)(=O)[C@@H]3C[C@@H](C(=O)NC4(C#N)CC4)N(C(=O)C4(C(F)(F)F)CC4)C3)cc2)s1 [Example 50, (2S,4R)—N-(1-cyanocyclopropyl)-4-(4-(2-methylthiazol-5-yl)phenylsulfonyl)-1-(1-(trifluoromethyl)cyclopropanecarbonyl)pyrrolidine-2-carboxamide]	9.14
COc1ncc(-c2ccc(S(=O)(=O)[C@@H]3C[C@@H](C(=O)NC4(C#N)CC4)N(C(=O)C4(C(F)(F)F)CC4)C3)cc2)cn1 [Example 51, (2S,4R)—N-(1-cyanocyclopropyl)-4-(4-(2-methoxypyrimidin-5-yl)phenylsulfonyl)-1-(1-(trifluoromethyl)cyclopropanecarbonyl)pyrrolidine-2-carboxamide]	9.05
Cc1ncnn1-c1ccc(S(=O)(=O)[C@@H]2C[C@@H](C(=O)NC3(C#N)CC3)N(C(=O)C3(C(F)(F)F)CC3)C2)c(Cl)c1 [Example 52, (2S,4R)-4-(2-chloro-4-(5-methyl-1H-1,2,4-triazol-1-yl)phenylsulfonyl)-N-(1-cyanocyclopropyl)-1-(1-(trifluoromethyl)cyclopropanecarbonyl)pyrrolidine-2-carboxamide]	9.31
